“And” between values parts separate entries of the source, which are not always exact repeats. Equal values may be shown once. Where a name gives a salt, the structure may show the parent alone.
Key:
Format in all cases: in vivo, mice of the BALB line
[1] = rectal (body) temperature of mice measured with medicinal electrothermometer TREM-1; settings: for body temperature: i.p.
Procedure: In all cases tests were carried out on mice of the BALB line of 3-4 month age. […] In the case of water-soluble compounds, aqueous solutions of the test compounds were injected intraperitoneally (i.p.), while water-insoluble compounds were introduced orally (p.o.).
Rectal temperature changes (absolute magnitues in ° C.) were measured using a medicinal electrothermometer TREM-1 (Table 1). The rate of oxygen consumption was monitored by measuring concentration of oxygen in a closed testing unit with optic-acoustic gas analyser MN 5130. The data on oxygen consumption are given in percents relative to the starting content of oxygen taken as 100%. (Table 2).
Rectal temperature of mice was followed in dynamics after 5, 15, 30, 60, 120, 180, 240, 300, and 360 minutes (Table 3). […] The same decrease in temperature at 190 mg/kg dosage was reached after 15 minutes; in 1.5 hours it reached 22-25° C. and maintained this level over the next 5 hours, that is 13-17° C. below the initial value. After one day, body temperature was restored to the value of 94-96% of initial.

[2] = behaviour of mice after injection of compound 1; settings: for behaviour of mice: 140 mg/kg
Procedure: In all cases tests were carried out on mice of the BALB line of 3-4 month age. Non-toxic doses of compounds under test varying from 60 to 400 mg/kg were used in all experiments. In the case of water-soluble compounds, aqueous solutions of the test compounds were injected intraperitoneally (i.p.), while water-insoluble compounds were introduced orally (p.o.).
The behaviour of mice to injection of compound 1 at 140 mg/kg dosage is as follows: […]

[3] = lethal dose (LD16, LD50) in mice

c1ccc(C2=NN=C(N3CCOCC3)SC2)cc1 [Compound 1, 2-Morpholino-5-phenyl-6H-1,3,4-thiadiazine, hydrobromide]
body temperature (T) ([1]; 190.0 mg/kg i.p., 40 min): 25.9 ± 0.3 °C | body temperature (T) ([1]; 190.0 mg/kg i.p., 60 min): 23.5 ± 0.2 °C | body temperature (T) ([1]; 190.0 mg/kg i.p., 90 min): 21.4 ± 0.2 °C | body temperature (T) ([1]; 190.0 mg/kg i.p., 120 min): 23.0 ± 0.8 °C | body temperature (T) ([1]; 190.0 mg/kg i.p., 180 min): 20.9 ± 0.1 °C | body temperature (T) ([1]; 190.0 mg/kg i.p., 210 min): 21.4 °C | body temperature (T) ([1]; 190.0 mg/kg i.p., 240 min): 21.1 ± 0.1 °C | body temperature (T) ([1]; 190.0 mg/kg i.p., 270 min): 20.8 ± 0.3 °C | body temperature (T) ([1]; 190.0 mg/kg i.p., 300 min, hydrobromide): 20.2 ± 0.0 °C and 20.2 ± 0.2 °C | body temperature (T) ([1]; 190.0 mg/kg i.p., 330 min): 19.8 ± 0.2 °C | body temperature (T) ([1]; 190.0 mg/kg i.p., 390 min): 19.8 ± 0.2 °C | body temperature (T) ([1]; 190.0 mg/kg i.p., 1140 min): 36.9 °C | body temperature (T) ([1]; 190.0 mg/kg i.p., 1620 min): 37.9 ± 0.4 °C | body temperature (T) ([1]; 190.0 mg/kg i.p., 1980 min): 36.9 ± 0.3 °C | time over which the temperature level was maintained ([1]; 190 mg/kg i.p., after reaching 22-25° C. in 1.5 hours): 5 h | body temperature below the initial value ([1]; 190 mg/kg i.p., from 1.5 hours over the next 5 hours): 13-17 °C | body temperature level reached ([1]; 190 mg/kg i.p., in 1.5 hours): 22-25 °C | body temperature (T) ([1]; 279.0 mg/kg i.p., 0 min): 38.9 ± 0.6 °C | body temperature (T) ([1]; 279.0 mg/kg i.p., 10 min): 35.8 ± 0.1 °C | body temperature (T) ([1]; 279.0 mg/kg i.p., 20 min): 30.2 ± 0.1 °C | body temperature (T) ([1]; 279.0 mg/kg i.p., 30 min): 27.1 °C | body temperature (T) ([1]; 279.0 mg/kg i.p., 40 min): 24.7 ± 0.2 °C | body temperature (T) ([1]; 279.0 mg/kg i.p., 60 min): 21.0 ± 0.1 °C | body temperature (T) ([1]; 279.0 mg/kg i.p., 90 min): 20.0 ± 0.1 °C | body temperature (T) ([1]; 279.0 mg/kg i.p., 120 min): 21.0 ± 0.3 °C | body temperature (T) ([1]; 279.0 mg/kg i.p., 180 min): 21.2 ± 0.2 °C | body temperature (T) ([1]; 279.0 mg/kg i.p., 210 min): 21.2 °C | body temperature (T) ([1]; 279.0 mg/kg i.p., 240 min): 20.8 ± 0.1 °C | body temperature (T) ([1]; 279.0 mg/kg i.p., 270 min): 21.5 ± 0.1 °C | body temperature (T) ([1]; 279.0 mg/kg i.p., 300 min): 21.3 ± 0.3 °C | body temperature (T) ([1]; 279.0 mg/kg i.p., 330 min): 22.5 ± 0.3 °C | body temperature (T) ([1]; 279.0 mg/kg i.p., 390 min): 19.4 ± 0.3 °C | body temperature (T) ([1]; 279.0 mg/kg i.p., 1140 min): 20.8 °C | body temperature (T) ([1]; 279.0 mg/kg i.p., 1620 min): 22.6 ± 0.9 °C | body temperature (T) ([1]; 279.0 mg/kg i.p., 1980 min): 21.2 ± 0.3 °C | body temperature (T) ([1]; 365.0 mg/kg i.p., 0 min): 39.6 ± 0.1 °C | body temperature (T) ([1]; 365.0 mg/kg i.p., 10 min): 35.4 ± 0.2 °C | body temperature (T) ([1]; 365.0 mg/kg i.p., 20 min): 30.1 ± 0.2 °C | body temperature (T) ([1]; 365.0 mg/kg i.p., 30 min): 27.2 °C | body temperature (T) ([1]; 365.0 mg/kg i.p., 40 min): 25.5 ± 0.2 °C | body temperature (T) ([1]; 365.0 mg/kg i.p., 60 min): 23.3 ± 0.3 °C | body temperature (T) ([1]; 365.0 mg/kg i.p., 90 min): 21.5 ± 0.2 °C | body temperature (T) ([1]; 365.0 mg/kg i.p., 120 min): 20.9 ± 0.2 °C | body temperature (T) ([1]; 365.0 mg/kg i.p., 180 min): 21.4 ± 0.1 °C | body temperature (T) ([1]; 365.0 mg/kg i.p., 210 min): 21.2 °C | body temperature (T) ([1]; 365.0 mg/kg i.p., 240 min): 21.1 ± 0.0 °C | body temperature (T) ([1]; 365.0 mg/kg i.p., 270 min): 21.4 ± 0.7 °C | body temperature restored, % of initial ([1]; after one day, 190 mg/kg i.p.): 94-96% | body temperature (T) ([1]; dose 36.5 mg/kg (1.06 mM/kg) i.p., 300 min): 22.1 ± 0.0 °C | body temperature (T) ([1]; dose 36.5 mg/kg (1.06 mM/kg) i.p., 330 min): 21.5 ± 0.1 °C | body temperature (T) ([1]; dose 36.5 mg/kg (1.06 mM/kg) i.p., 390 min): 20.0 ± 0.2 °C | body temperature (T) ([1]; dose 36.5 mg/kg (1.06 mM/kg) i.p., 1140 min): 20.8 °C | body temperature (T) ([1]; dose 36.5 mg/kg (1.06 mM/kg) i.p., 1620 min): 21.6 ± 0.1 °C | body temperature (T) ([1]; dose 36.5 mg/kg (1.06 mM/kg) i.p., 1980 min): 22.1 ± 0.2 °C | body temperature ([1]; 0 min, mg/kg: cpd 1 190.0, cpd 2 178.0, cpd 5 190.0, cpd 6 160.0): 39.2 °C | body temperature ([1]; 30 min, mg/kg: cpd 1 190.0, cpd 2 178.0, cpd 5 190.0, cpd 6 160.0): 26.9 °C | body temperature ([1]; 60 min, mg/kg: cpd 1 190.0, cpd 2 178.0, cpd 5 190.0, cpd 6 160.0): 23.5 °C | body temperature ([1]; 90 min, mg/kg: cpd 1 190.0, cpd 2 178.0, cpd 6 160.0): 21.4 °C | body temperature ([1]; 120 min, mg/kg: cpd 1 190.0, cpd 2 178.0, cpd 5 190.0, cpd 6 160.0): 23.0 °C | body temperature ([1]; 180 min, mg/kg: cpd 1 190.0, cpd 2 178.0, cpd 5 190.0, cpd 6 160.0): 20.9 °C | body temperature ([1]; 240 min, mg/kg: cpd 1 190.0, cpd 2 178.0, cpd 5 190.0, cpd 6 160.0): 21.1 °C | body temperature ([1]; 300 min, mg/kg: cpd 1 190.0, cpd 2 178.0, cpd 6 160.0): 20.2 °C | behaviour of mice ([2]; 15-180 minutes): akinesia, mio-relaxation, lack of reflexes | behaviour of mice ([2]; 180-360 minutes): restoration of motor activity | behaviour of mice ([2]; 5 minutes): decrease in motor activity, suppression of breathing | tremor or convulsions ([2]; non-toxic dose levels): not accompanied by tremor or convulsions | 1/2 LD16, calculated ([3]; i.p.): 140 mg/kg | 1/2 LD16, experimental ([3]; i.p.): 190 mg/kg | 1/16 LD16 (lower end of dose range 1/16 LD16 -LD50) ([3]; i.p.): 10 mg/kg | LD50 ([3]; mouse, in vivo, ip, read-out: LD50 (upper end of dose range 1/16 LD16 -LD50)): 365 mg/kg

From US6313111A, “Substituted 6H-1,3,4-thiadiazine-2-amines, the use thereof as anaesthetising, cardiovascular and hypometabolic agents, and pharmaceutical composition containing them” (priority 1998, dated 2001)
